The record followed here is US10047036B2, “Method for the synthesis of hydroxy-triglycerides and uses thereof for the prevention and treatment of diseases” (UNIVERSITAT DE LES ILLES BALEARS, priority 2014, dated 2018).

Each structure is given as a SMILES string. Bounds are passed on as bounds.

Test [1] relates to A549 (lung). Nature of the test: growth inhibition of human tumour cells, 72 h incubation. Type of test: cell-based. Particulars: 72 hours of incubation. Here is the method:
(§1) On the one hand, human cells of different types of cancer were used. The cells were incubated at 37° C. and 5% of CO2 in air, in culture medium RPMI1640 or DMEM with bovine foetal serum (10%) and other supplements and in the presence or absence of the triglycerides of the present invention at different concentrations during 72 hours. It was possible to observe that the hydroxy-triglycerides of the invention have a high efficacy against the growth of human tumour cells, but not against the growth of normal non-tumour cells (human fibroblasts, MRC5).

The test system of test [2] is BXPC3 (pancreas). Described as above. In kind it is cell-based. Particulars: 72 hours of incubation. Here is the method: as §1
Test [3] relates to HL-60 (myeloblastic leukaemia). The description is as above. Type of test: cell-based. Particulars: 72 hours of incubation. The protocol: as §1
Test [4] concerns HT-29 (colon). The description is as above. In kind it is cell-based. Particulars: 72 hours of incubation. The protocol: as §1
The subject of test [5] is HeLa (cervix). The test is described as above. Particulars: 72 hours of incubation. Type of test: cell-based. Here is the method: as §1
Test [6] deals with HepG2 (liver carcinoma). The test is described as above. Type of test: cell-based. Particulars: 72 hours of incubation. Here is the method:
as §1

The test system of test [7] is Jurkat (lymphoblastic leukaemia). The test is described as above. Particulars: 72 hours of incubation. Type of test: cell-based. The protocol:
as §1

Test [8] has as its system MDA-MB231 (breast). The test is described as above. Type of test: cell-based. Particulars: 72 hours of incubation. The protocol: as §1
Test [9] has as its system MIA-PaCa-2 (pancreas). Described as above. In kind it is cell-based. Particulars: 72 hours of incubation. Here is the method:
as §1

Test [10] has as its system NCI1975D (lung). The test is described as above. In kind it is cell-based. Particulars: 72 hours of incubation. Here is the method:
as §1

Test [11] deals with PC3 (prostate). The description is as above. Particulars: 72 hours of incubation. Type of test: cell-based. The protocol:
as §1

Test [12] deals with SF767 (glioma). The test is described as above. In kind it is cell-based. Particulars: 72 hours of incubation. The protocol:
as §1

In test [13] the test system is SH-SY5Y (neuroblastoma). The test is described as above. Type of test: cell-based. Particulars: 72 hours of incubation. Here is the method:
as §1

In test [14] the test system is U87M (glioma). The test is described as above. Type of test: cell-based. Particulars: 72 hours of incubation. The protocol: as §1
The subject of test [15] is MRC5 (non-tumour) human fibroblasts. Briefly: growth inhibition of normal non-tumour cells, 72 h incubation. In kind it is cell-based. Particulars: 72 hours of incubation. Here is the method:
as §1

For test [16], the system named is systolic blood pressure. Nature of the test: systolic blood pressure in spontaneously hypertensive rats. Particulars: SHR rats; for Δ SP, change in systolic blood pressure: 14 days, 600 mg/kg every 12 hours, basal 216 mmHg. In kind it is in vivo. From the text: Metabolic and cardiovascular pathologies are closely related. The overfeeding which characterises our society not only gives rise to problems of obesity and excess weight. It is also linked to the appearance of diabetes, dyslipidaemia, hypertension, strokes, arteriosclerosis, ictus, etc. All of these pathologies increase the risk of premature death and can even cause death. In this sense, certain natural oils show a certain efficacy against this type of pathologies, but their power is limited. In contrast, the molecules of the invention have an important effect against the development of this type of pathologies. To be able to study the effects of the compounds of the invention for the prevention and treatment of metabolic and cardiovascular pathologies, hypertensive rats were used (SHR strain, spontaneously hypertensive rats). These rats present obesity, high blood pressure, dyslipidaemia (hypercholesterolemia and hypertriglyceridemia), diabetes, metabolic syndrome and other related health problems. Hypertensive rats of the SHR strain (spontaneously hypertensive rats) with an approximate weight of 300 grams were treated with TGM1 during 9 days (400 mg/kg, every 12 h, p.o.). Systolic pressure was measured before starting the treatment (basal) and 9 days later. In these animals with a metabolic/cardiovascular pathology, this treatment with TGM1 produced drops in blood pressure of approximately 25 mmHg, while the 14-day treatments with 600 mg/kg of TGM1 induced even greater drops in systolic blood pressure of up to 37 mmHg for TGM1 and up to 52 mmHg for TGM6 (FIG. 4 and Table 3). […] [table]

Test [17] relates to plasma glucose. Briefly: plasma glucose in spontaneously hypertensive rats. Type of test: in vivo. Particulars: SHR rats, 9 days, 400 mg/kg every 12 hours, p.o.; fasting 12 hours. From the text: Metabolic and cardiovascular pathologies are closely related. The overfeeding which characterises our society not only gives rise to problems of obesity and excess weight. It is also linked to the appearance of diabetes, dyslipidaemia, hypertension, strokes, arteriosclerosis, ictus, etc. All of these pathologies increase the risk of premature death and can even cause death. In this sense, certain natural oils show a certain efficacy against this type of pathologies, but their power is limited. In contrast, the molecules of the invention have an important effect against the development of this type of pathologies. To be able to study the effects of the compounds of the invention for the prevention and treatment of metabolic and cardiovascular pathologies, hypertensive rats were used (SHR strain, spontaneously hypertensive rats). These rats present obesity, high blood pressure, dyslipidaemia (hypercholesterolemia and hypertriglyceridemia), diabetes, metabolic syndrome and other related health problems. At the same time, research was conducted into the efficacy of the hydroxy-triglycerides for controlling the high levels of glycaemia in SHR rats, and therefore, preventing or curing diabetes. Hypertensive rats (SHR) with an approximate weight of 300 grams were treated with TGM1 during 9 days (400 mg/kg, every 12 h, p.o.). Plasma glucose was measured before starting the treatment (basal) and 9 days later. In all cases, the plasma measurements were conducted in rats kept fasting during 12 hours. In this way, after 9 days of treatment, the levels of glucose in blood were reduced by up to more than 25% for the molecules of the invention (FIG. 5 and Table 4). [table]

Test [18] relates to transgenic rat with 5 mutations of human familial Alzheimer's (Tag). Briefly: radial maze test in transgenic rats with Alzheimer's. Particulars: Tag rats, 50 mg/kg p.o. daily; 100% = healthy animals without Alzheimer's. In kind it is in vivo. Here is the method:
In order to study Alzheimer's disease a transgenic rat model was used with 5 mutations which appear in human familiar Alzheimer's (symbolised as Tag, and abbreviated Tg). This model of Alzheimer's is very severe, and the animals already show a cognitive deficit at 2 months of age. To carry out this experiment, both young rats (of 3 months of age) and aged rats (of 10 months of age) were used and treated for 3 months with the hydroxy-triglycerides of the present invention (50 mg/kg day, p.o.). The rats were subjected to a low-calorie diet so that they would be hungry and carry out a test in a radial maze, in which food was placed in 4 of the device's 8 arms (asymmetrically), quantifying the number of errors committed until the exercise was completed. […]
The control animals were treated with vehicle (saline) and the rest with 50 mg/kg (p.o.) daily of the indicated compound.

With `CCC=CCC=CCC=CCC=CCC=CCCC(O)C(=O)OCC(COC(=O)C(O)CCC=CCC=CCC=CCC=CCC=CCC)OC(=O)C(O)CCC=CCC=CCC=CCC=CCC=CCC` (stereo not drawn) [TGM5, 1,2,3-tri(2′-hydroxy-eicosa-5′,8′,11′,14′,17′-pentaenoyl)glycerol], the IC50 – broadly, the concentration needed to halve the response being measured – came out at 4 µM in test [1]; 17 µM in test [2]; 13 µM in test [3]; 8 µM in [4]; 19 µM in test [5]; 52 µM in test [6]. For the same compound, the IC50 in [7] stood at 9 µM; in test [8], 18 µM; in [9] it was 23 µM; in test [10], 14 µM; in test [11] it was 21 µM; in test [12], 26 µM. Besides, the IC50 was 29 µM in test [13], 43 µM in test [14] and more than 500 µM in test [15]. The “Δ SP, change in systolic blood pressure” value in test [16] (p.o.) is on record as −40 mmHg. Also, the “Δ G, change in glucose levels in plasma” value in test [17] was -13 mg/dL. The “Errors made in the radial maze” value in test [18] is recorded as 121.3%.
As to `CCCCCC(O)C(=O)OCC(COC(=O)C(O)CCCCC)OC(=O)C(O)CCCCC` (stereo not drawn) [TGM0, 1,2,3-tri(2′-hydroxyheptanoyl)glycerol], the IC50 was found to be 121 µM in test [1] (Homo sapiens, A549); 297 µM in test [2] (Homo sapiens, BXPC-3); 265 µM in [4] (Homo sapiens, HT-29); 199 µM in [5] (Homo sapiens, HeLa); 326 µM in test [6] (Homo sapiens, HepG2); 176 µM in test [7] (Homo sapiens, Jurkat). Moreover, the IC50 came to 254 µM in [8] (Homo sapiens, MDA-MB-231); 283 µM in test [9] (Homo sapiens, MIA PaCa-2); 327 µM in test [10] (Homo sapiens); 231 µM in [11] (Homo sapiens); 278 µM in [12] (Homo sapiens, SF767); 253 µM in test [13] (Homo sapiens, SH-SY5Y). The IC50 is 342 µM in test [14] (Homo sapiens) and more than 500 µM in [15] (Homo sapiens, MRC5). In addition, the “Δ SP, change in systolic blood pressure” value in test [16] (p.o.) is reported as −8 mmHg. Besides, the “Δ G, change in glucose levels in plasma” value in test [17] was -4 mg/dL. In test [18], the “Errors made in the radial maze” value is recorded as 153.1%.
As for `CCC=CCC=CCC=CCCCCCCC(O)C(=O)OCC(COC(=O)C(O)CCCCCCC=CCC=CCC=CCC)OC(=O)C(O)CCCCCCC=CCC=CCC=CCC` (stereo not drawn) [TGM3A, 1,2,3-tri(2′-hydroxy-octadec-9′,12′,15′-trienoyl)glycerol], the IC50 in [1] amounted to 43 µM; in test [2] it was 80 µM; in test [3] it was 58 µM; in test [4], 187 µM; in test [5], 164 µM; in test [6], 42 µM. Also, the IC50 stood at 95 µM in test [7]; 116 µM in [8]; 142 µM in test [9]; 64 µM in test [10]; 119 µM in test [11]; 57 µM in [12]. For the same compound, the IC50 in test [13] is 39 µM; in [14] it was 31 µM; in test [15], more than 500 µM. Further, the “Δ SP, change in systolic blood pressure” value in test [16] (p.o.) was −28 mmHg. Moreover, the “Δ G, change in glucose levels in plasma” value in test [17] is -14 mg/dL. The “Errors made in the radial maze” value in [18] came to 134.5%.
On to `CCCCCCCCC=CCCCCCCC(O)C(=O)OCC(COC(=O)C(O)CCCCCCC=CCCCCCCCC)OC(=O)C(O)CCCCCCC=CCCCCCCCC` (stereo not drawn) [TGM1, 1,2,3-tri(2′-hydroxy-octadec-9′-enoyl)glycerol], for which the IC50 in test [1] worked out at 29 µM; in test [2] it was 211 µM; in test [3] it was 243 µM; in test [4] it was 93 µM; in [5] it was 184 µM; in [6], 87 µM. In addition, the half-maximal inhibitory concentration (IC50) in test [7] worked out at 32 µM; in [8] it was 128 µM; in test [9], 144 µM; in [10], 292 µM; in test [11] it was 240 µM; in [12], 282 µM. In addition, the IC50 in test [13] is 129 µM; in [14] it was 257 µM; in test [15], more than 500 µM. For the same compound, the “drops in systolic blood pressure” value in [16] (14-day treatments with 600 mg/kg) is reported as “up to 37 mmHg”. Besides, in [16] (9 days, 400 mg/kg every 12 h, p.o.), the “drops in blood pressure” value was “approximately 25 mmHg”. In addition, in test [16] (p.o.), the “Δ SP, change in systolic blood pressure” value is recorded as −37 mmHg. Also, in test [17], the “Δ G, change in glucose levels in plasma” value is -20 mg/dL. Moreover, the “Errors made in the radial maze” value in test [18] was determined as 128.9%.
With `CCCCCC=CCC=CCC=CCCCC(O)C(=O)OCC(COC(=O)C(O)CCCC=CCC=CCC=CCCCCC)OC(=O)C(O)CCCC=CCC=CCC=CCCCCC` (stereo not drawn) [TGM3G, 1,2,3-tri(2′-hydroxy-octadec-6′,9′,12′-trienoyl)glycerol], the IC50 in test [1] amounted to 39 µM; in test [2] it was 81 µM; in test [3], 42 µM; in [4], 59 µM; in [5] it was 75 µM; in test [6] it was 187 µM. The IC50 amounted to 174 µM in [7]; 187 µM in test [8]; 123 µM in test [9]; 94 µM in test [11]; 46 µM in test [12]; 154 µM in test [13]. The IC50 in [14] is 28 µM; in test [15] it was more than 500 µM. Moreover, the “Δ SP, change in systolic blood pressure” value in test [16] (p.o.) was −21 mmHg. The “Δ G, change in glucose levels in plasma” value in test [17] was -9 mg/dL. Besides, the “Errors made in the radial maze” value in [18] is 156.8%.
